This assay addresses Replicase polyprotein 1ab (Severe acute respiratory syndrome coronavirus, UniProt P0C6X7). Description: 3CL Protease Enzyme Assays. The conditions noted are these: pH 7.5; 25 °C. How it is done: The effects of compound on enzyme activity were measured by using peptide cleavage assay. Cleavage products were resolved and analyzed with a reverse-phase HPLC. Quantification of peak areas was used to determine the extent of substrate conversion. Ki was calculated using the equation of Cheng and Prusoff.

For orientation: Ki means a dissociation constant, usually derived from enzyme kinetics or from competition with a known ligand. Read a low Ki as a stronger hold on the target. Compound `CCOC(=O)/C=C/[C@H](C[C@@H]1CCNC1=O)NC(=O)[C@H](Cc1ccc(F)cc1)NC(=O)[C@@H](NC(=O)c1cc(C)on1)C(C)C` [AG7088 analogue 2a] returned a Ki above 10000 nM.
Compound `C[C@H](OC(C)(C)C)[C@H](NC(=O)OCc1ccccc1)C(=O)N[C@@H](CC1CCCCC1)C(=O)N[C@H](C=O)C[C@@H]1CCNC1=O` [benzyl N-[(1S,2S)-2-(tert-butoxy)-1-{[(1S)-2-cyclohexyl-1-{[(2S)-1-oxo-3-[(3S)-2-oxopyrrolidin-3-yl]propan-2-yl]carbamoyl}ethyl]carbamoyl}propyl]carbamate] registered a Ki of 53 nM.
